Experimental data published in patent US20240172752A1, “7-OXA-3,4-DIAZABICYCLO[4.1.0]HEPT-4-EN-2-ONE COMPOUND AND HERBICIDE” (Nippon Soda Co., Ltd., priority 2021, published 2024).

How the values were obtained:
[1] = test system: Amaranthus blitum; experiment: Soil treatment herbicidal test, weed killing rate, Amaranthus blitum; assay type: in vivo; conditions: 672 h, 250 g per hectare, after 4 weeks, read-out: herbicidal activity (weed killing rate) with respect to Amaranthus blitum
Procedure: (§1) POA allylphenyl ether (4.1 parts by weight), POE-POP glycol (1 part by weight), POE sorbitan laurate (0.8 parts by weight), glycerin (2.6 parts by weight), dimethylformamide (65.9 parts by weight), N-methylpyrrolidone (5.1 parts by weight), cyclohexanone (15.4 parts by weight), and aromatic hydrocarbons (5.1 parts by weight) were mixed and dissolved to prepare an emulsion. The compound of the present invention (4 mg) was dissolved in this emulsion (100 μL) to prepare a test emulsion. POA means “polyoxyalkylene”, POE means “polyoxyethylene”, and POP means “polyoxypropylene”.
(§2) A 70 cm^2 pot was filled with soil, and seeds of Digitaria ciliaris, Setaria faberi, Abutilon theophrasti and Amaranthus blitum were sown into the surface layer which was covered lightly with soil. The next day, the above test emulsion was diluted so as to achieve a predetermined amount of active ingredient and sprayed on the soil surface with a small sprayer at a spray water volume of 2,860 L per hectare.
(§3) After 4 weeks, the above ground weights of weeds in the untreated and treated areas were measured for each weed, and the weed killing rate was calculated by the following calculation formula.
(§4) Weed killing rate (%)=[(above ground weight of weeds in untreated area)−(above ground weight of weeds in treated area)/(above ground weight of weeds in untreated area)]×100

[2] = test system: Abutilon theophrasti; experiment: Soil treatment herbicidal test, weed killing rate, Abutilon theophrasti; assay type: in vivo; conditions: 672 h, 250 g per hectare, after 4 weeks, read-out: herbicidal activity (weed killing rate) with respect to Abutilon theophrasti
Procedure: as §1, §2, §3, §4

Row | SMILES | melting point [°C] | pest or weed control at 250 g/ha [1] [%] | pest or weed control at 250 g/ha [2] [%]
1 | COC12OC1(c1ccc(C(F)(F)F)nc1S(C)(=O)=O)C=NN(C)C2=O (centres unmarked) [Compound A-1] | – | ≥ 80 | ≥ 80
2 | COC12OC1(c1ncc(Cl)cc1S(C)(=O)=O)C=NN(C)C2=O (centres unmarked) [Compound A-2] | – | – | ≥ 80
3 | COC12OC1(c1ccc(C(F)(F)F)nc1S(=O)(=O)N1CCOCC1)C=NN(C)C2=O (centres unmarked) [Compound A-4] | – | ≥ 80 | ≥ 80
4 | COCCOCc1nc(C(F)(F)F)ccc1C12C=NN(C)C(=O)C1(OC)O2 (centres unmarked) [Compound A-5] | – | ≥ 80 | ≥ 80
5 | COC12OC1(c1ncc(C(F)(F)F)cc1S(C)(=O)=O)C=NN(C)C2=O (centres unmarked) [Compound A-6] | – | ≥ 80 | ≥ 80
6 | COC12OC1(c1cnc(C(F)(F)F)cc1S(C)(=O)=O)C=NN(C)C2=O (centres unmarked) [Compound A-8] | – | ≥ 80 | ≥ 80
7 | COC12OC1(c1ccc(C(F)(F)F)c3ncccc13)C=NN(C)C2=O (centres unmarked) [Compound A-24] | 171 to 172 | ≥ 80 | ≥ 80
8 | COC12OC1(c1cc(C(F)(F)F)nn1CS(C)(=O)=O)C=NN(C)C2=O (centres unmarked) [Compound A-25] | – | ≥ 80 | ≥ 80

More lines, main results first:

Row | melting point [°C] | SMILES | pest or weed control at 250 g/ha [1] [%] | pest or weed control at 250 g/ha [2] [%]
9 | 203 to 210 | COC12OC1(c1cc3cccnc3nc1C(F)(F)F)C=NN(C)C2=O (centres unmarked) [Compound A-7] | ≥ 80 | ≥ 80
10 | 238 to 239 | COC12OC1(c1cc3cccnc3c(Cl)c1C(F)(F)F)C=NN(C)C2=O (centres unmarked) [Compound A-9] | – | –
11 | 180 to 182 | COC12OC1(c1nn(C)c(=O)n(-c3ccc(F)cc3)c1=O)C=NN(C)C2=O (centres unmarked) [Compound A-10] | – | –
12 | 128 to 130 | COC12OC1(c1ccc(C(F)(F)F)n(C)c1=O)C=NN(C)C2=O (centres unmarked) [Compound A-11] | – | –
13 | 191 to 194 | COC12OC1(c1cn(C)c(=O)n(-c3ccc(F)cc3)c1=O)C=NN(C)C2=O (centres unmarked) [Compound A-17] | – | –
14 | 175 to 179 | COC12OC1(c1cc3ccncc3n(-c3ccc(F)cc3)c1=O)C=NN(C)C2=O (centres unmarked) [Compound A-18] | – | –
15 | 153 to 155 | COC12OC1(c1nn(C)c(=O)c(C)c1Cl)C=NN(C)C2=O (centres unmarked) [Compound A-23] | – | ≥ 80
